The values below come from patent publication EP0447324B1, “2,4-Pyrimidinedione derivatives and medicines containing them” (SANOFI, priority 1990, dated 1991).

“Also recorded” adds a separate entry of the source.

This assay relates to peroxydation des lipides membranaires (suspensions de mitochondries). Nature of the assay: Inhibition of membrane lipid peroxidation in beef heart mitochondria (malonaldehyde formation, dihydroxyfumaric acid/iron). Type of assay: biochemical, boeuf. From the text: L'inhibition de la peroxydation lipidique due aux radicaux libres oxygénés, peroxydation particulièrement importante en présence de fer, a été déterminée, in vitro, par la mesure de la quantité d'aldéhyde malonique formée dans des suspensions de mitochondries, mises en présence d'un générateur d'ions superoxydes comme l'acide dihydroxyfumarique.
L'activité inhibitrice de la peroxydation des lipides membranaires des composés a été déterminée comme suit :
a) préparation des mitochondries
On prélève un coeur de boeuf immédiatement après l'abattage de l'animal et le refroidit à 4°C, température à laquelle toutes les opérations suivantes seront effectuées. Le coeur est lavé avec une solution aqueuse tampon à pH 7,4 (TRIS,HCl 10 mM, EDTA 2 mM, KCl 20 mM, saccharose 250 mM) puis les tissus conjonctifs et les graisses sont éliminés. Le muscle est alors haché et le hachis est mis en suspension dans une solution aqueuse tampon à pH 7,4 (TRIS,HCl 10 mM, saccharose 250 mM, EDTA 1 mM) à raison de 700 g de muscle pour 3 litres. Le pH de la suspension est réajusté à 7,4, régulièrement, avant d'isoler le hachis par filtration sur une gaze. […]
Une gamme étalon de malonaldéhyde bis-(diéthylacétal) dilué dans une solution aqueuse de HCl 0,1 N permet de calculer à quelle concentration d'aldéhyde correspond chaque intensité de la fluorescence i. […]

`O=c1[nH]c(=O)c2[nH]c(=O)[nH]c2[nH]1` [acide urique]: the “inhibition de la peroxydation lipidique (result in words)” value is “n'inhibe pas; also recorded: inactif”. Besides, where the note is “concentration inférieure à 100 »M”, the “inhibition de la formation de malonaldéhyde” value was “n'inhibe pas”.
